Data: a compilation of properties of binary mixtures (doi:10.1021/acs.jced.3c00537)

Test: xn = mol fraction of the nth substance listed
Settings: 100 kPa

CC[n+]1ccn(C)c1.COP(=O)([O-])OC + CCO
viscosity [mPa·s]
Settings | 293.15 K | 298.15 K | 303.15 K | 308.15 K | 313.15 K | 318.15 K | 323.15 K | 328.15 K | 333.15 K | 338.15 K
x1 = 0.1004 | 3.47 | 3.1 | 2.77 | 2.5 | 2.28 | 2.09 | 1.95 | 1.85 | – | 1.55
x1 = 0.2032 | 7.38 | 6.54 | 5.8 | 5.17 | 4.66 | 4.26 | 3.94 | 3.61 | 3.26 | 3.07
x1 = 0.3007 | 14.45 | 12.4 | – | 9.4 | – | – | 6.75 | 6.22 | 5.73 | 5.32
x1 = 0.3994 | 26.4 | 22.01 | 18.49 | 15.67 | 13.43 | 11.74 | 10.36 | 9.26 | 8.31 | 7.61
x1 = 0.5013 | 46.78 | – | 30.72 | 25.48 | 21.4 | 18.27 | – | 13.67 | 11.97 | 10.68
x1 = 0.5994 | 79.2 | 61.56 | – | 38.81 | – | 26.33 | 22.2 | 19.04 | 16.4 | 14.35
x1 = 0.7006 | – | – | 72.82 | 57.48 | 45.56 | 36.84 | 30.39 | – | – | 18.37
x1 = 0.8011 | 176.7 | – | 106.5 | 80.4 | 62.91 | 48.34 | – | 31.5 | 26.15 | 21.94
x1 = 0.8988 | 241 | 192.2 | 140.5 | 106.5 | 78.6 | 62.43 | 49.31 | 39.47 | 32.04 | –
x1 = 1 | 348 | 247 | 178.9 | – | – | 79.1 | 62.91 | 50.39 | – | 33.59

COP(=O)([O-])OC.Cn1cc[n+](C)c1 + CCO
viscosity [mPa·s]
Settings | 293.15 K | 298.15 K | 303.15 K | 308.15 K | 313.15 K | 318.15 K | 323.15 K | 328.15 K | 333.15 K | 338.15 K
x1 = 0.1005 | – | 2.91 | – | 2.38 | 2.15 | 1.9 | 1.74 | 1.54 | – | 1.22
x1 = 0.2006 | 6.54 | 5.92 | – | 4.71 | 4.29 | 3.89 | 3.5 | 3.19 | 2.93 | 2.67
x1 = 0.3005 | 13.17 | 11.4 | – | 8.77 | 7.8 | – | – | 5.87 | – | 5.14
x1 = 0.4031 | 24.71 | 20.72 | 17.29 | 14.75 | – | 11.17 | 9.96 | 8.98 | 8.12 | 7.43
x1 = 0.4996 | 42.18 | 33.84 | 27.62 | 22.9 | 19.31 | 16.65 | 14.39 | – | 11.07 | –
x1 = 0.6043 | 70.07 | 54.83 | 43.41 | 35.07 | 28.85 | 24.13 | 20.39 | 17.54 | 15.17 | 13.3
x1 = 0.7009 | 111.3 | – | 64.5 | 50.89 | 40.71 | – | – | 22.99 | – | 16.89
x1 = 0.797 | – | 118.8 | 89.5 | 69.03 | – | 43.34 | – | – | 24.3 | 20.61
x1 = 0.8995 | 235.4 | – | 125.2 | – | 72.72 | 58.89 | – | 36.94 | – | 25.28
x1 = 1 | 331 | 232.5 | 165.8 | – | 93.5 | – | 57.09 | 45.49 | 36.7 | 30.05

CCO + CC[n+]1ccn(C)c1.COP(=O)([O-])OC
x2 = 0
Settings | viscosity [mPa·s]
293.15 K | 1.18
303.15 K | 0.976
308.15 K | 0.89
313.15 K | 0.815
318.15 K | 0.75
323.15 K | 0.694
333.15 K | 0.603
338.15 K | 0.564

CCO + COP(=O)([O-])OC.Cn1cc[n+](C)c1
x2 = 0
Settings | viscosity [mPa·s]
293.15 K | 1.18
303.15 K | 0.976
313.15 K | 0.815
318.15 K | 0.75
323.15 K | 0.694
333.15 K | 0.603
338.15 K | 0.564
